Source: patent publication WO2009110655A1, “Novel beta substituted morita-baylis-hillman derivatives” (FOOD SCIENCE Co Ltd, priority 2008, dated 2009)

How the values were obtained:
[1] = system: human esophageal cancer cell line HEC4; assay: MTT assay, anticancer effect (cytotoxicity) of β-substituted MBH derivatives; assay type: cell-based
Human HeLa cell lines = details: "It is reported"; cited from earlier work
[2] = 2 mg compound in 80 μl DMSO, 1 μl per well, 24 h at 37 °C, undiluted (FIGs. 1 and 2)
[3] = diluted 20-fold, 24 h at 37 °C (FIG. 3)

Structure (SMILES) | oncolytic activity [1, 2] | viabilities of the cancer cells [1, 3] | further results
CCCCCCCCCCCCC/C=C(/C(=O)OC)C(O[Si](CC)(CC)CC)C(C)=O (stereo not drawn) [SE-2, (E)-methyl-2-(l-triethylsiloxy-2-oxopropyl)hexadeca-2-enoate] | almost no oncolytic activity | – | –
CCCCCCCCCCCCC/C=C(/C(=O)OC)C(O)C(C)=O (stereo not drawn) [SE-3, secokotomolide A] | – | about 50% | DNA damage (Human HeLa cell lines): apotositic DNA damage; induction of apoptosis (Human HeLa cell lines): significant induction of apoptosis
CCCCCCCCCCCCC/C=C(/C(=O)OC)C(O)c1ccccc1 (stereo not drawn) [SE-5, (E)-methyl-2-(hydroxy(phenyl)methyl)hexateca-2-enoate] | – | about 50% | activity (comparison of diluted samples) ([1]; diluted samples, 20-fold, compared with SE-3 (FIG. 3)): a little higher activity than SE-3
C=C(C)C(O[Si](CC)(CC)CC)/C(=C\CCCCCCCCCCCCC)C(=O)OC (stereo not drawn) [SE-I, (E)-methyl-2-(l-triethylsiloxy-2-methylaryl)hexadeca-2-enoate] | almost no oncolytic activity | – | –
CCCCCCCCCCCC/C=C(\C(=O)OC)C(O)c1ccccc1 (stereo not drawn) [SE-Il, (Z)-methyl-2-(hydroxy(phenyl)methyl)pentadeca-2-enoate] | very high oncolytic activities | – | viabilities of the cancer cells [1, 2]: less than 20%
